Data published in patent publication US11787839B2, “Targeting α2δ-1-bound glutamate receptors for treating diseases and disorders” (Board of Regents, The University of Texas System, priority 2017, dated 2023).
“Also recorded” adds a separate entry of the source.

Key:
[1] = system: presynaptic NMDARs of spinal lamina II neurons; assay: Spinal cord slice recordings, paclitaxel-treated WT and α2δ-1 KO mice; format: cell-based, mouse; conditions: bath AP5
[2] = system: rats treated with the Cacna2d1 vector; assay: Withdrawal thresholds in rats overexpressing Cacna2d1 (lentiviral vector); format: in vivo, rat; conditions: Cacna2d1 vector rats; AP5, peptide, gabapentin intrathecal; memantine systemic
[3] = system: SHRs; assay: PVN microinjection and recording of ABP and RSNA in SHRs; format: in vivo, rat
Procedure: PVN microinjection and recording of renal sympathetic nerve activity: Rats were anaesthetized via i.p. administration of a mixture of α-chloralose (60 mg kg-1) and urethane (800 mg kg-1) and mechanically ventilated with trachea cannulation. The arterial blood pressure (ABP) was monitored via a catheter placed in the left femoral artery, and heart rate (HR) was extracted from the pulsatile pressure wave. A retroperitoneal incision was made, and a branch of the left renal postganglionic sympathetic nerve was isolated under a surgical microscope. The renal sympathetic nerve was cut distally to ensure that afferent activity was not recorded. The ABP, HR and renal sympathetic nerve activity (RSNA) were recorded using a 1401-PLUS analogue-to-digital converter and Spike2 system (Cambridge Electronic Design, Cambridge, UK). After the brain was exposed, a microinjection pipette (tip diameter 20-30 μm) was advanced into the PVN in accordance with the stereotactic co-ordinates: 1.6-2.0 mm caudal to the bregma, 0.5 mm lateral to the midline and 7.0-7.5 mm ventral to the dura. The microinjection was performed using a Nanoject II (Drummond Scientific Company) and monitored using a surgical microscope as described previously (Li & Pan, 2006, 2007; Qiao et al. 2017). […] At the end of each experiment, the electrical background noise was measured after the proximal end of renal nerve was crushed at the end of each experiment. To determine the location of the injection site and diffusion of the drugs in the PVN, 5% rhodamine-labelled fluorescent microspheres (0.04 μm; Molecular Probes) were included in the injection solution. Rats were excluded from the data analysis if the microinjections were misplaced outside the PVN.

[4] = system: presynaptic NMDARs of spinal dorsal horn neurons; assay: Spinal cord slice recordings, morphine-treated WT and Cacna2d1 KO mice
[5] = molecular target: T1, NMDARs of spinal dorsal horn neurons (Mus musculus, UniProt P35436+P35438+Q01097); assay: Electrophysiological recordings in mouse spinal cord slices (spared nerve injury); format: cell-based; conditions: Cacna2d1+/+ mice; bath application of AP5
T1 construct: from tissue; host or cells: mouse lumbar spinal cord slices (dorsal horn / lamina II neurons), WT and Cacna2d1 KO

[6] = system: α2δ-1; assay: α2δ expression in DRG and dorsal spinal cord after intrathecal siRNA (PCR, Western blot); format: in vivo, rat; conditions: SNL rats
Procedure: Li et al., 2004). α2δ-1-specific siRNA […] ID NO:49) or universal negative-control siRNA (#SIC001, Sigma-Aldrich, St. Louis, Mo.) was mixed with i-Fect (Neuromics, Edina, Minn.) to a final concentration of 400 mg/L for the intrathecal injections. α2δ-1-specific siRNA or negative control siRNA (4 μg/day for 4 days) was administered intrathecally in the SNL rats 3 weeks after surgery (Dolphin et al., 2012). Western immunoblotting analysis of α2δ-1: Western blotting was used to quantify the α2δ-1 expression level in the DRG and dorsal spinal cord. […] The supernatant was carefully collected, and the protein concentration was measured using a DC Protein Assay Kit (Bio-Rad, Hercules, Calif.). […] The specific protein band detected by using the α2δ-1 antibody was confirmed by assays of protein knockdown using the α2δ-1-specific siRNA in vivo. The protein bands were detected with ECL kit (Thermo Fisher Scientific, Waltham, Mass.), and protein band intensity was visualized and quantified using the Odyssey Fc Imager (LI-COR Biosciences, Lincoln, Nebr.). Quantitative PCR analysis: Total RNA was extracted from the DRG and spinal cord tissues at the L5 and L6 levels using TRIzol-chloroform and then treated with DNase I (Invitrogen). cDNA was prepared by using the SuperScript III First-Strand Synthesis Kit and then treated with RNase H (Invitrogen). […]

[7] = molecular target: T2, NMDARs of spinal dorsal horn neurons (Rattus norvegicus, UniProt P35439+Q00959+Q00960); assay: Electrophysiological recordings in rat spinal cord slices (SNL, Cacna2d1 vector); format: cell-based; set-up: SNL-induced increase in (NMDAR-mediated) baseline frequency of mEPSCs: dose or concentration left out as unconfirmed; conditions: SNL rats, siRNA intrathecal
T2 construct: from tissue; host or cells: rat lumbar spinal cord slices (lamina II neurons) and synaptosomes made from them
Procedure: Electrophysiological recordings in spinal cord slices: Anesthesia was induced in rats or mice with isoflurane and removed the lumbar spinal cords via laminectomy. […] The spinal cord slices were placed in a glass bottom chamber and continuously perfused with Krebs solution at 5.0 ml/min at 34° C. maintained by an inline solution heater and a temperature controller.
It becomes impossible to visualize neurons in other laminas in adult (>10-week-old) rodent spinal cords because of heavy laminar myelination. […] The tip of the puff pipette was placed 150 μm away from the recorded neuron.
In some experiments, the attached dorsal root was electrically stimulated with a stimulating electrode (0.5 ms, 0.6 mA and 0.1 Hz) to evoke monosynaptic excitatory postsynaptic currents (EPSCs). The α-amino-3-hydroxy-5-methyl-4-isoxazolepropionic acid receptor (AMPAR)-mediated EPSCs were recorded at a holding potential of −60 mV in the presence of 10 μM bicuculline and 1 μM strychnine, whereas NMDAR-mediated EPSCs were recorded at +40 mV in the presence of 10 μM 6-cyano-7-nitroquinoxaline-2,3-dione, 10 μM bicuculline, and 1 μM strychnine. […] All signals were recorded using an amplifier (MultiClamp700B; Axon Instruments Inc., Union City, Calif.), filtered at 1-2 kHz, digitized at 10 kHz, and stored for off-line analysis. Final spinal cord slice recordings were performed 3-4 weeks after the nerve injury or sham surgery. In all electrophysiological experiments, 3-5 animals were used for each recording protocol, and only 1 neuron was recorded in each spinal cord slice.

[8] = system: SNL rats; assay: Withdrawal thresholds in spinal nerve ligation (SNL), sham and naive rats; format: in vivo, rat
From the text: Animal models of neuropathic pain: All surgical preparations and experimental protocols were approved by the Animal Care and Use Committee of the University of Texas MD Anderson Cancer Center and conformed to the National Institutes of Health guidelines for the ethical use of animals. Male Sprague-Dawley rats (8-10 weeks of age) were purchased from Harlan Laboratories (Indianapolis, Ind.). L5 and L6 spinal nerve ligation (SNL) were used as an experimental model of neuropathic pain (Cole et al., 2005). In brief, anesthesia was induced with 2-3% isoflurane, isolated the left L5-L6 spinal nerves and ligated them tightly with 6-0 silk sutures. The rats in the sham control group underwent the same surgical procedures except for the nerve ligation.
Intrathecal catheters were implanted in some SNL group rats during isoflurane-induced anesthesia 2-3 weeks after SNL surgery. Briefly, the anesthetized animal was placed on a stereotaxic frame, and a small incision was made at the back of its neck. Then, a small puncture was made in the atlanto-occipital membrane of the cisterna magna, and a PE-10 catheter (˜8 cm) was inserted with the caudal tip reaching the lumbar enlargement of the spinal cord (Luo et al., 2001; Patel et al., 2013). The rostral end of the catheter was exteriorized and closed the wound with sutures. The animals were allowed to recover for at least 4 days before the intrathecal injections were performed. Animals displaying signs of motor or neurological dysfunction were immediately killed with an intraperitoneal injection of phenobarbital (200 mg/kg) or by inhalation of CO2.
Behavioral assessments of nociception: To detect tactile allodynia, von Frey filaments were applied to the animals' left hindpaws (ipsilateral to the nerve injury). The rats or mice were placed individually in suspended chambers on a mesh floor. After an acclimation period of 30 min, a series of calibrated von Frey filaments were applied (Stoelting, Wood Dale, Ill.) perpendicularly to the plantar surface of the hindpaw with sufficient force to bend the filament for 6 s. Brisk withdrawal or paw flinching was considered a positive response. After a response, the filament of the next lower force was applied. In the absence of a response, the filament of the next greater force was applied. Using the up-down method, the tactile stimulus that produced a 50% likelihood of a withdrawal response was calculated (Fuller-Bicer et al., 2009).
To quantify the mechanical nociceptive threshold in the rats and mice (Patel et al., 2013; Dolphin et al., 2012), the paw pressure tests were conducted on the hindpaw with an analgesiometer (Ugo Basile, Varese, Italy). The device was activated by pressing a foot pedal, which triggered a motor that applied a constantly increasing force on a linear scale. […]

[9] = paclitaxel-treated α2δ-1 KO mice
[10] = morphine-treated Cacna2d1 KO mice, AP5
[11] = morphine-treated WT mice, AP5 50 μM

T2 sequence (Q00959 20-1464 limits assumed, other chains not shown): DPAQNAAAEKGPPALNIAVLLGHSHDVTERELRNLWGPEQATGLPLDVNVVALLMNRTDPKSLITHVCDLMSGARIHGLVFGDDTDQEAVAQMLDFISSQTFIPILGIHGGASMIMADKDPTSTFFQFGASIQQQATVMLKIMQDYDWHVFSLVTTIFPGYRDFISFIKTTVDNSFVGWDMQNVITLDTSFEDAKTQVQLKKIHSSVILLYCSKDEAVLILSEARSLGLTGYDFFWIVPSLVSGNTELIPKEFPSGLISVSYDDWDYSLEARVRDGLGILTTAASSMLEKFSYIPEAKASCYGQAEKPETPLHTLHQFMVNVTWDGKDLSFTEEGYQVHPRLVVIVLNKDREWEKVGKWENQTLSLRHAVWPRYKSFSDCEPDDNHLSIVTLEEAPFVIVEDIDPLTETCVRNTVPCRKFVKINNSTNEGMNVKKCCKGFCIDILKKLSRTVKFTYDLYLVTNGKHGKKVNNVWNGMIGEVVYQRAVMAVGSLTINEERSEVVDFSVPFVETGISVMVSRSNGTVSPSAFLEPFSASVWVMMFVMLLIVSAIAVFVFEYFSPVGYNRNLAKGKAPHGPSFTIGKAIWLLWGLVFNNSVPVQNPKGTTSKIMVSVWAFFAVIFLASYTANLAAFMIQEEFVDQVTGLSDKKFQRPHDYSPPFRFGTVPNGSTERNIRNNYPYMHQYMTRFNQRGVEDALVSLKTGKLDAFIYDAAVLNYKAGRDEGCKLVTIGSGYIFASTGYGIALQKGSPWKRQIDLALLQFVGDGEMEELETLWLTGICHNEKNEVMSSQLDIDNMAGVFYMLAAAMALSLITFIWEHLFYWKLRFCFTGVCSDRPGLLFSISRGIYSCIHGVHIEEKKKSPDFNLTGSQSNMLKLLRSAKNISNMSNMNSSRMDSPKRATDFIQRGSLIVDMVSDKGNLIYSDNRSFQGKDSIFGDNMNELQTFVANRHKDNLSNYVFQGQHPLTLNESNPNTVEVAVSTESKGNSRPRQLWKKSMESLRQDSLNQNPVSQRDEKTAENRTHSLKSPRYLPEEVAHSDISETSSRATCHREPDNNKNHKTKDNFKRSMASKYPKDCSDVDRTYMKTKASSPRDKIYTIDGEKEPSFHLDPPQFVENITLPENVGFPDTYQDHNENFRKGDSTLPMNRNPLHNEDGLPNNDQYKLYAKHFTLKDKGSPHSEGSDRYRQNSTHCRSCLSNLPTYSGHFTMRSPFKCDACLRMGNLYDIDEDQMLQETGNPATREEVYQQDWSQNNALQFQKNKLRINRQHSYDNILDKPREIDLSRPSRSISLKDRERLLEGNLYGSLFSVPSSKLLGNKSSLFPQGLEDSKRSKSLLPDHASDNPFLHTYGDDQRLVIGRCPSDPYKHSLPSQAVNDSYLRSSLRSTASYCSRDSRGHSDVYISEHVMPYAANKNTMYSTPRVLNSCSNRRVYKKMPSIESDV
T2 sequence (Q00960 27-1482, other chains not shown): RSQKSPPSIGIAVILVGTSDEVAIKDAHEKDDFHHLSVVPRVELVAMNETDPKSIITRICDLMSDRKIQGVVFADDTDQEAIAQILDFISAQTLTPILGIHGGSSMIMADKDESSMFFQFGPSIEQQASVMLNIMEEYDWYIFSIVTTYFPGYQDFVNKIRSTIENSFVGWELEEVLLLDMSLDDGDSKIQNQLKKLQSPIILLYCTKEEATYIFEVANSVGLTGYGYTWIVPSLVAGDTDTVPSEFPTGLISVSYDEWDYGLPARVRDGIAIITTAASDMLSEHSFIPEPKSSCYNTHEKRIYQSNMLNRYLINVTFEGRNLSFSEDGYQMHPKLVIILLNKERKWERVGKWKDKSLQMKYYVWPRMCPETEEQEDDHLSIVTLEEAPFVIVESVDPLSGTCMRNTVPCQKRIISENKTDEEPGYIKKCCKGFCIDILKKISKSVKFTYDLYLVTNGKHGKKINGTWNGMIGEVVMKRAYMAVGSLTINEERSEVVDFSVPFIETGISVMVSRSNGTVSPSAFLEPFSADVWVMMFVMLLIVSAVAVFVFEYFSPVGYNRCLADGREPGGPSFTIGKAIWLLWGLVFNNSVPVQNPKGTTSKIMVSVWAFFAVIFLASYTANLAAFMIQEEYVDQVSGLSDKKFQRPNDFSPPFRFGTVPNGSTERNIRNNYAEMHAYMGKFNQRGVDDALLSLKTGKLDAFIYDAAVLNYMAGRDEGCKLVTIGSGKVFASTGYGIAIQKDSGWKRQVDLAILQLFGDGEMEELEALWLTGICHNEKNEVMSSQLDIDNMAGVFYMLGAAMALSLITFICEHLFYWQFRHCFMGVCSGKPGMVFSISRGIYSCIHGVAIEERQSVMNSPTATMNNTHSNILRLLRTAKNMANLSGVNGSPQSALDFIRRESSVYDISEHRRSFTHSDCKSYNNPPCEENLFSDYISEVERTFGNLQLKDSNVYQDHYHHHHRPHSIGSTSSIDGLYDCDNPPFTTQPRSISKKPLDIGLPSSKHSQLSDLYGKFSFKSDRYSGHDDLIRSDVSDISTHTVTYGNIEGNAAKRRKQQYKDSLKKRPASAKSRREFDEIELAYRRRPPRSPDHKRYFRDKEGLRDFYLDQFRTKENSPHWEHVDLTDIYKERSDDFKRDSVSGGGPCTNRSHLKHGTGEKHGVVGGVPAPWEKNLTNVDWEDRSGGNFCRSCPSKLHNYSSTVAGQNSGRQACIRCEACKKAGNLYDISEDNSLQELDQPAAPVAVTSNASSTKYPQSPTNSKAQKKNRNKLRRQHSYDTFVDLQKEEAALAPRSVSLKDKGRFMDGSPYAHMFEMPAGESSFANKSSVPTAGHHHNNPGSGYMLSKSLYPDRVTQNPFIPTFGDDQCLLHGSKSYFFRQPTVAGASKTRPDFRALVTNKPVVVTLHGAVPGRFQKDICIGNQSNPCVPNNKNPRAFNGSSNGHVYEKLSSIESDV

Substance	baseline PPR decreased by paclitaxel ([1]; WT mice)	paclitaxel-induced increase in the frequency of mEPSCs ([1]; WT mice)	increased baseline amplitude of evoked EPSCs ([1]; paclitaxel-treated WT mice)	PPR [1, 9]	amplitude of evoked EPSCs [1, 9]	frequency of mEPSCs [1, 9]	pain hypersensitivity induced by Cacna2d1 overexpression (tactile and pressure withdrawal thresholds) [2]	ABP and RSNA, subsequent AP5 after α2δ-1Tat peptide ([3]; AP5 1.0 nmol, 50 nL into the PVN)	ABP and RSNA, AP5 after prior Tat-fused control peptide ([3]; AP5 into the PVN)	amplitude or PPR of monosynaptic EPSCs [4, 10]	frequency or amplitude of mEPSCs [4, 10]	PPR of evoked EPSCs [4, 11]	amplitude of monosynaptic EPSCs [4, 11]	baseline frequency of mEPSCs [4, 11]	nerve injury-increased amplitude of monosynaptic EPSCs evoked by dorsal root stimulation [5]	expression level of α2δ-1 in the DRG and dorsal spinal cord [6]	SNL-induced increase in puff NMDA currents of dorsal horn neurons ([7]; gabapentin 100 mM for 30 min)	SNL-induced increase in (NMDAR-mediated) baseline frequency of mEPSCs ([7]; gabapentin for 30 min)	pain hypersensitivity of SNL rats ([8]; SNL rats, peptides intrathecal or systemic, siRNA intrathecal)	withdrawal thresholds in naive control rats ([8]; naive control rats, intrathecal siRNA)
(2R)-amino-5-phosphonopentanoate [AP5]	restored	normalized	normalized	had no effect	had no effect	had no effect	readily reversed	failed to further decrease	significantly decreased	had no effect	had no effect	increased	significantly reduced	substantially reduced	readily normalized	–	–	–	–	–
CAAGCAACGAAGUUGUCUA [Cacna2d1-specific siRNA]	–	–	–	–	–	–	–	–	–	–	–	–	–	–	–	reduced	completely normalized	completely normalized	reduced pain hypersensitivity	had no effect; also recorded: No significant effects
